From patent publication US6455510B1, “Chemical Compounds” (SmithKline Beecham Corporation, priority 1997, dated 2002)
Blank lines part the entries; values can stand above or below the molecule they belong to.

Tests used:
[1] = target: T1, human adenosine A1 receptor (Homo sapiens, UniProt P30542); assay: Reporter gene assay (CRE/SPAP) in CHO cells, agonist activity, adenosine A1; assay type: cell-based; conditions: CHO cells stably transfected with human adenosine A1 receptor; inhibition of forskolin-stimulated SPAP production; potency relative to NECA=1
T1 construct: expressed in transfected cells; host or cells: Chinese hamster ovary (CHO) cells containing CRE/SPAP/HYG reporter elements
T1 sequence (P30542 1-326): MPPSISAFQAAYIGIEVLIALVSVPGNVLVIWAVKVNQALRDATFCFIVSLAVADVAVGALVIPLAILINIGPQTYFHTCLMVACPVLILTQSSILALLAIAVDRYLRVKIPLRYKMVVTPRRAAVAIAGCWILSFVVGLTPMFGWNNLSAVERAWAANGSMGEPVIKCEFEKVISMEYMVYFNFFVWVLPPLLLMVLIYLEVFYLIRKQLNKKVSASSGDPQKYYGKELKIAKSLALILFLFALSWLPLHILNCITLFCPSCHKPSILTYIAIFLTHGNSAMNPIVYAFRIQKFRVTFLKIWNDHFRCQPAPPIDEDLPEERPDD
Procedure: (§1) Reporter Gene Experiments
Agonist activity was measured in Chinese hamster ovary (CHO) cells containing the CRE/SPAP/HYG (CRE=cyclic AMP response element; HYG=hygromycin resistance; SPAP=secreted placental alkaline phosphatase) reporter gene elements, which upon stimulation of cAMP levels produced SPAP. A cell line was used, which was stably transfected with either the human adenosine Al receptor or the human adenosine A3 receptor in addition to the above elements. Cells were plated out in 96-well plates in culture medium and incubated at 37° C. for 1 hour. […] 15 Min later, cAMP levels were stimulated by addition of a maximal concentration of forskolin. All cells were then incubated for a further 5 hours at 37° C., and cooled to room temperature, after which a substrate for the phosphatase (para-nitrophenol phosphate, pNPP), which is converted by SPAP to a coloured reagent) was then added and the 96-well plates were read in a plate reader. From these readings, the concentration-dependence of the inhibition by the agonist for forskolin-stimulated SPAP production can be calculated.
(§2) (ECR=equipotent concentration ratio relative to NECA=1)

[2] = target: T2, human adenosine A3 receptor (Homo sapiens, UniProt P0DMS8); assay: Reporter gene assay (CRE/SPAP) in CHO cells, agonist activity, adenosine A3; assay type: cell-based; conditions: CHO cells stably transfected with human adenosine A3 receptor; inhibition of forskolin-stimulated SPAP production; potency relative to NECA=1
T2 construct: expressed in transfected cells; host or cells: Chinese hamster ovary (CHO) cells containing CRE/SPAP/HYG reporter elements
T2 sequence (P0DMS8 1-318): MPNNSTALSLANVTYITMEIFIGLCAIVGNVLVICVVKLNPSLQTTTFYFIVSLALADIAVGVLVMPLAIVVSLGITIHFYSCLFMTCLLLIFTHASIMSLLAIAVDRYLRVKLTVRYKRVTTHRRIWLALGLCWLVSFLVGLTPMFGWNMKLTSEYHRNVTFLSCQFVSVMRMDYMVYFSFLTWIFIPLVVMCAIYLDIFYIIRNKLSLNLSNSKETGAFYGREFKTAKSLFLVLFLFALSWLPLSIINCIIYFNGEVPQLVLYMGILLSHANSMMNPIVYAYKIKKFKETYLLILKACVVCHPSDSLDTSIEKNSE
Procedure: as §1
Agonist activity was measured in Chinese hamster ovary (CHO) cells containing the CRE/SPAP/HYG (CRE=cyclic AMP response element; HYG=hygromycin resistance; SPAP=secreted placental alkaline phosphatase) reporter gene elements, which upon stimulation of cAMP levels produced SPAP. A cell line was used, which was stably transfected with either the human adenosine Al receptor or the human adenosine A3 receptor in addition to the above elements. Cells were plated out in 96-well plates in culture medium and incubated at 37° C. for 1 hour. For measurement of potency, agonists were added to the appropriate wells at a concentration range of approximately 10^−10-10^−5M. 15 Min later, cAMP levels were stimulated by addition of a maximal concentration of forskolin. All cells were then incubated for a further 5 hours at 37° C., and cooled to room temperature, after which a substrate for the phosphatase (para-nitrophenol phosphate, pNPP), which is converted by SPAP to a coloured reagent) was then added and the 96-well plates were read in a plate reader. From these readings, the concentration-dependence of the inhibition by the agonist for forskolin-stimulated SPAP production can be calculated. One of the agonists tested on each 96-well plate was the standard non-selective agonist, N-ethylcarboxamidoadenosine (NECA), and the potency of all test agonists is expressed relative to that of the NECA standard.
as §2

Structure (SMILES): O[C@@H]1[C@H](O)[C@@H](CF)O[C@H]1n1cnc2c(NC3CCOCC3)nc(Cl)nc21 [Example 3, 2-Chloro-5′-deoxy-5′-fluoro-N-(tetrahydro-pyran-4-yl)-adenosine]
- A1 Receptor, Reporter Gene Assay ECR (equipotent concentration ratio relative to NECA=1) [1]: 2.41
- A3 Receptor, Reporter Gene Assay ECR (equipotent concentration ratio relative to NECA=1) [2]: >139.00

Structure (SMILES): Cc1nc(NC2CCOCC2)c2ncn([C@@H]3O[C@H](CF)[C@@H](O)[C@H]3O)c2n1 [Example 2, 5′-Deoxy-5′-fluoro-2-methyl-N-(tetrahydro-pyran-4-yl)-adenosine]
- A1 Receptor, Reporter Gene Assay ECR (equipotent concentration ratio relative to NECA=1) [1]: 11.8
- A3 Receptor, Reporter Gene Assay ECR (equipotent concentration ratio relative to NECA=1) [2]: >226.00

Structure (SMILES): O[C@@H]1[C@H](O)[C@@H](CF)O[C@H]1n1cnc2c(NC3CC4CCC3C4)nc(Cl)nc21 (stereo partly drawn) [Example 25, N-(exo-Bicyclo[2.2.1]hept-2-yl)-2-chloro-5′-deoxy-5′-fluoro-adenosine]
- A3 Receptor, Reporter Gene Assay ECR (equipotent concentration ratio relative to NECA=1) [2]: >151.00

Structure (SMILES): O=S1(=O)CCC(Nc2ncnc3c2ncn3[C@@H]2O[C@H](CF)[C@@H](O)[C@H]2O)CC1 [Example 27]
- A3 Receptor, Reporter Gene Assay ECR (equipotent concentration ratio relative to NECA=1) [2]: >162.00

Structure (SMILES): O[C@@H]1[C@H](O)[C@@H](CF)O[C@H]1n1cnc2c(N[C@@H]3CCC[C@H]3F)nc(Cl)nc21 [Example 6, 2-Chloro-5-deoxy-5′-fluoro-N-(2R-fluoro-cyclopent-(R)-yl)-adenosine]
- A3 Receptor, Reporter Gene Assay ECR (equipotent concentration ratio relative to NECA=1) [2]: >156.00

Structure (SMILES): CCOC(=O)N1CCC(Nc2nc(Cl)nc3c2ncn3[C@@H]2O[C@H](CF)[C@@H](O)[C@H]2O)CC1 [Example 9, 4-[2-Chloro-9-(5S-fluoromethyl-3R,4S-dihydroxy-tetrahydro-furan-2R-yl)-9H-purin-6-ylamino]-piperidine-1-carboxylic acid ethyl ester]
- A1 Receptor, Reporter Gene Assay ECR (equipotent concentration ratio relative to NECA=1) [1]: 3.00
- A3 Receptor, Reporter Gene Assay ECR (equipotent concentration ratio relative to NECA=1) [2]: >129.00

Structure (SMILES): O=S1(=O)CCC(Nc2nc(Cl)nc3c2ncn3[C@@H]2O[C@H](CF)[C@@H](O)[C@H]2O)CC1 [Example 15, 2-Chloro-5′-deoxy-N-(1,1-dioxo-hexahydro-1δ6-thiopyran-4-yl)-5′-fluoro-adenosine]
- A1 Receptor, Reporter Gene Assay ECR (equipotent concentration ratio relative to NECA=1) [1]: 9.16
- A3 Receptor, Reporter Gene Assay ECR (equipotent concentration ratio relative to NECA=1) [2]: >435.00

Structure (SMILES): CCNC(=O)N1CCC(Nc2nc(Cl)nc3c2ncn3[C@@H]2O[C@H](CF)[C@@H](O)[C@H]2O)CC1 [Example 29, 4-[2-Chloro-9-(5S-fluoromethyl-3R,4S-dihydroxy-tetrahydro-furan-2R-yl)-9H-purin-6-ylamino]-piperidine-1-carboxylic acid ethylamide]
- A1 Receptor, Reporter Gene Assay ECR (equipotent concentration ratio relative to NECA=1) [1]: 51.60
- A3 Receptor, Reporter Gene Assay ECR (equipotent concentration ratio relative to NECA=1) [2]: >236.00

Structure (SMILES): CCOC(=O)N1CCC(Nc2ncnc3c2ncn3[C@@H]2O[C@H](CF)[C@@H](O)[C@H]2O)CC1 [Example 14, 4-[9-(5S-Fluoromethyl-3R,4S-dihydroxy-tetrahydro-furan-2R-yl)-9H-purin-6-ylamino]-piperidine-1-carboxylic acid ethyl ester]
- A1 Receptor, Reporter Gene Assay ECR (equipotent concentration ratio relative to NECA=1) [1]: 1.68
- A3 Receptor, Reporter Gene Assay ECR (equipotent concentration ratio relative to NECA=1) [2]: >435.00

Structure (SMILES): CC(F)(F)[C@H]1O[C@@H](n2cnc3c(NC4CC5CCC4C5)ncnc32)[C@H](O)[C@@H]1O (stereo partly drawn) [Example 5, (2R,3R,4S,5S)-2-[6-(Bicyclo[2.2.1]hept-2-ylamino)-purin-9-yl]-5-(1,1-difluoro-ethyl)-tetrahydro-furan-3,4-diol]
- A1 Receptor, Reporter Gene Assay ECR (equipotent concentration ratio relative to NECA=1) [1]: 7.14
- A3 Receptor, Reporter Gene Assay ECR (equipotent concentration ratio relative to NECA=1) [2]: >257.00

Structure (SMILES): O[C@@H]1[C@H](O)[C@@H](CF)O[C@H]1n1cnc2c(NC3CC4CCC3C4)ncnc21 (stereo partly drawn) [Example 11, N-(endo-Bicyclo[2.2.1]hept-2-yl)-5′-deoxy-5′-fluoro-adenosine]
- A3 Receptor, Reporter Gene Assay ECR (equipotent concentration ratio relative to NECA=1) [2]: >152.00

Structure (SMILES): O[C@@H]1[C@H](O)[C@@H](CF)O[C@H]1n1cnc2c(N[C@H]3CCC[C@@H]3O)ncnc21 [Example 13, 5′-Deoxy-5′-fluoro-N-(2S-hydroxy-cyclopent-(S)-yl)-adenosine]
- A3 Receptor, Reporter Gene Assay ECR (equipotent concentration ratio relative to NECA=1) [2]: >152.00

Structure (SMILES): O[C@@H]1[C@H](O)[C@@H](CF)O[C@H]1n1cnc2c(NC3CC4CCC3C4)nc(Cl)nc21 (stereo partly drawn) [Example 8, N-(endo-Bicyclo[2.2.1]hept-2-yl)-2-chloro-5′-deoxy-5′-fluoro-adenosine]
- A3 Receptor, Reporter Gene Assay ECR (equipotent concentration ratio relative to NECA=1) [2]: >91.00

Structure (SMILES): O[C@@H]1[C@H](O)[C@@H](CF)O[C@H]1n1cnc2c(N[C@H]3CCC[C@@H]3O)nc(Cl)nc21 [Example 7, 2-Chloro-5′-deoxy-5′-fluoro-N-(2S-hydroxy-cyclopent-(S)-yl)adenosine]
- A3 Receptor, Reporter Gene Assay ECR (equipotent concentration ratio relative to NECA=1) [2]: >91.00

Structure (SMILES): O[C@@H]1[C@H](O)[C@@H](C(F)(F)F)O[C@H]1n1cnc2c(NC3CCOCC3)nc(Cl)nc21 [Example 4, (2R,3 R,4S,5S)-2-[2-Chloro-6-(tetrahydro-pyran-4-ylamino)-purin-9-yl]-5-trifluoromethyl-tetrahydro-furan-3,4-diol]
- A1 Receptor, Reporter Gene Assay ECR (equipotent concentration ratio relative to NECA=1) [1]: 190.10

Continued, values first:

- A1 Receptor, Reporter Gene Assay ECR (equipotent concentration ratio relative to NECA=1) [1]: 3.51
- A3 Receptor, Reporter Gene Assay ECR (equipotent concentration ratio relative to NECA=1) [2]: >353.00
Structure (SMILES): CC(C)(C)CNc1ncnc2c1ncn2[C@@H]1O[C@H](CF)[C@@H](O)[C@H]1O [Example 19, 5′-Deoxy-5′-fluoro-N-(2,2-dimethyl-propyl)-adenosine]

- A1 Receptor, Reporter Gene Assay ECR (equipotent concentration ratio relative to NECA=1) [1]: 1.64
- A3 Receptor, Reporter Gene Assay ECR (equipotent concentration ratio relative to NECA=1) [2]: >353.00
Structure (SMILES): O[C@@H]1[C@H](O)[C@@H](CF)O[C@H]1n1cnc2c(NC3CCSCC3)ncnc21 [Example 21, 5′-Deoxy-5′-fluoro-N-(tetrahydro-thiopyran-4-yl)-adenosine]

- A1 Receptor, Reporter Gene Assay ECR (equipotent concentration ratio relative to NECA=1) [1]: 11.20
- A3 Receptor, Reporter Gene Assay ECR (equipotent concentration ratio relative to NECA=1) [2]: 48.90
Structure (SMILES): CS(=O)(=O)N1CCC(Nc2nc(Cl)nc3c2ncn3[C@@H]2O[C@H](CF)[C@@H](O)[C@H]2O)CC1 [Example 23, 2-Chloro-5′-deoxy-5′-fluoro-N-(1-methanesulfonyl-piperidin-4-yl)-adenosine]

- A1 Receptor, Reporter Gene Assay ECR (equipotent concentration ratio relative to NECA=1) [1]: 22.30
- A3 Receptor, Reporter Gene Assay ECR (equipotent concentration ratio relative to NECA=1) [2]: >353.00
Structure (SMILES): CC(F)(F)[C@H]1O[C@@H](n2cnc3c(NCC4CC4)ncnc32)[C@H](O)[C@@H]1O [Example 17, (2R,3R,4S,5S)-2-[6-(Cyclopropylmethyl-amino)-purin-9-yl]-(1,1-difluoro-ethyl)-tetrahydro-furan-3,4-diol]

- A1 Receptor, Reporter Gene Assay ECR (equipotent concentration ratio relative to NECA=1) [1]: 3.30
- A3 Receptor, Reporter Gene Assay ECR (equipotent concentration ratio relative to NECA=1) [2]: >145.00
Structure (SMILES): CC(C)CNc1nc(Cl)nc2c1ncn2[C@@H]1O[C@H](CF)[C@@H](O)[C@H]1O [Example 22, 2-Chloro-5′-deoxy-5′-fluoro-N-isobutyl-adenosine]

- A1 Receptor, Reporter Gene Assay ECR (equipotent concentration ratio relative to NECA=1) [1]: 8.17
- A3 Receptor, Reporter Gene Assay ECR (equipotent concentration ratio relative to NECA=1) [2]: >353.00
Structure (SMILES): CC(C)(C)Nc1ncnc2c1ncn2[C@@H]1O[C@H](CF)[C@@H](O)[C@H]1O [Example 20, N-tert-Butyl-5′-deoxy-5′-fluoro-adenosine]

- A1 Receptor, Reporter Gene Assay ECR (equipotent concentration ratio relative to NECA=1) [1]: 2.05
- A3 Receptor, Reporter Gene Assay ECR (equipotent concentration ratio relative to NECA=1) [2]: >170.00
Structure (SMILES): O[C@@H]1[C@H](O)[C@@H](CF)O[C@H]1n1cnc2c(Nc3ccc(Cl)cc3F)ncnc21 [Example 28, N-(4-Chloro-2-fluoro-phenyl)-5′-deoxy-5′-fluoro-adenosine]
